# According to patent publication US11992499B2, “Quinoline derivatives for use in the treatment of inflammation diseases” (ABIVAX, priority 2018, dated 2024):
# “Also recorded” adds a separate entry of the source. Read-outs that look alike come from different tables or passages of the source.
# What was measured:
# [1] = system: STAM model of non-alcoholic steatohepatitis; experiment: STAM model of NASH: liver triglyceride content; format: in vivo, mice; conditions: n = 8
# Procedure: (§1) NASH was induced in 48 male mice by a single subcutaneous injection of 200 μg streptozotocin (STZ, Sigma-Aldrich, USA) solution 2 days after birth and feeding with high fat diet (HFD, 57 kcal % fat, Cat #HFD32, CLEA Japan, Inc., Japan) after 4 weeks of age.
# (§2) Compound A was administered at 3 dose levels of 10, 20 and 40 mg/kg once daily from 6 to 9 weeks of age. Compound B was administered at a dose of 40 mg/kg once daily from 6 to 9 weeks of age. Telmisartan was administered at a dose of 10 mg/kg once daily from 6 to 9 weeks of age.
# Liver total lipid-extracts were obtained by Folch's method (Folch J. et al., J. Biol. Chem. 1957; 226: 497). Liver samples were homogenized in chloroform-methanol (2:1, v/v) and incubated overnight at room temperature. After washing with chloroform-methanol-water (8:4:3, v/v/v), the extracts were evaporated to dryness, and dissolved in isopropanol. Liver triglyceride content was measured by Triglyceride E-test (FUJIFILM Wako Pure Chemical Corporation, Japan).
# [2] = system: STAM model of non-alcoholic steatohepatitis; format: in vivo; conditions: for Liver weight (mean ± SD) / Liver-to-body weight ratio (mean ± SD): n = 8
# From the text: To prepare dosing solution, Compound A and B were weighed and suspended in Vehicle which was composed of 20% of Vehicle-A1 and 80% of Vehicle-A2. Vehicle-A1 was composed of 0.5% (w/v) Carboxymethyl cellulose (CMC) 400-800 centipoises in water for injection+2.5% (w/v) Tween 80. Vehicle-A2 was composed of 0.5% (w/v) Carboxymethyl cellulose (CMC) 400-800 centipoises in water for injection. Telmisartan (Micardis®) was purchased from Boehringer Ingelheim GmbH (Germany) and dissolved in pure water.
# as §1
# Compound A and B, and Telmisartan were administered orally in a volume of 10 mL/kg.
# as §2
# C57BL/6 mice (14-day-pregnant female) were obtained from Japan SLC, Inc. (Japan). All animals used in the study were housed and cared for in accordance with the Japanese Pharmacological Society Guidelines for Animal Use.
# Group 1: Vehicle Eight NASH mice were orally administered vehicle [20% of Vehicle-A1 and 80% of Vehicle-A2] in a volume of 10 mL/kg once daily from 6 to 9 weeks of age.
# Eight NASH mice were orally administered vehicle supplemented with Compound A at a dose of 10 mg/kg once daily from 6 to 9 weeks of age.
# Eight NASH mice were orally administered vehicle supplemented with Compound A at a dose of 20 mg/kg once daily from 6 to 9 weeks of age.
# Eight NASH mice were orally administered vehicle supplemented with Compound A at a dose of 40 mg/kg once daily from 6 to 9 weeks of age.
# Eight NASH mice were orally administered vehicle supplemented with Compound B at a dose of 40 mg/kg once daily from 6 to 9 weeks of age.
# Eight NASH mice were orally administered pure water supplemented with Telmisartan at a dose of 10 mg/kg once daily from 6 to 9 weeks of age.
# The viability, clinical signs and behavior were monitored daily. Body weight was recorded before the treatment. […] The animals were sacrificed at 9 weeks of age by exsanguination through direct cardiac puncture under isoflurane anesthesia (Pfizer Inc.).
# [3] = system: STAM model of non-alcoholic steatohepatitis; experiment: STAM model of NASH: plasma ALT; format: in vivo, mice; conditions: for Plasma ALT (mean ± SD): n = 8
# Procedure: NASH was induced in 48 male mice by a single subcutaneous injection of 200 μg streptozotocin (STZ, Sigma-Aldrich, USA) solution 2 days after birth and feeding with high fat diet (HFD, 57 kcal % fat, Cat #HFD32, CLEA Japan, Inc., Japan) after 4 weeks of age. Compound A was administered at 3 dose levels of 10, 20 and 40 mg/kg once daily from 6 to 9 weeks of age. Compound B was administered at a dose of 40 mg/kg once daily from 6 to 9 weeks of age. Telmisartan was administered at a dose of 10 mg/kg once daily from 6 to 9 weeks of age. For plasma biochemistry, non-fasting blood was collected in polypropylene tubes with anticoagulant (Novo-Heparin, Mochida Pharmaceutical Co. Ltd., Japan) and centrifuged at 1,000×g for 15 minutes at 4° C. The supernatant was collected and stored at −80° C. until use. Plasma ALT was measured by FUJI DRI-CHEM 7000 (Fujifilm, Japan).
# [4] = 10 mg/kg PO QD, 6-9 wks of age (Compound A low, Telmisartan groups)
# [5] = 20 mg/kg PO QD, 6-9 wks of age (Compound A middle group)
# [6] = 40 mg/kg PO QD, 6-9 wks of age (Compound A high, Compound B groups)
# [7] = 10 mg/kg PO QD (Compound A low, Telmisartan groups)
# [8] = 20 mg/kg PO QD (Compound A middle group)
# [9] = 40 mg/kg PO QD (Compound A high, Compound B groups)
compound,measurement,setting,value
"FC(F)(F)Oc1ccc(Nc2ccc3cccc(Cl)c3n2)cc1 [Compound A, 8-Chloro-N-(4-(trifluoromethoxy)phenyl)quinolin-2-amine]",Liver triglyceride (mean ± SD),[1]; [4],64.9 ± 27.6 mg/g liver
same,Liver triglyceride (mean ± SD),[1]; [5],63.1 ± 21.2 mg/g liver
same,Liver triglyceride (mean ± SD),[1]; [6],66.6 ± 25.6 mg/g liver
same,Mean liver weight compared with the Vehicle group,[2]; [7],significant increase
same,Mean liver-to-body weight ratio compared with the Vehicle group,[2]; [7],tended to increase
same,Liver weight (mean ± SD),[2]; [4],1662 ± 254 mg
same,Liver-to-body weight ratio (mean ± SD),[2]; [4],8.4 ± 1.8%
same,Mean liver weight compared with the Vehicle group,[2]; [8],no significant difference
same,Mean liver-to-body weight ratio compared with the Vehicle group,[2]; [8],tended to increase
same,Liver weight (mean ± SD),[2]; [5],1500 ± 77 mg
same,Liver-to-body weight ratio (mean ± SD),[2]; [5],7.6 ± 0.4%
same,Mean liver weight compared with the Vehicle group,[2]; [9],tended to increase
same,Mean liver-to-body weight ratio compared with the Vehicle group,[2]; [9],tended to increase
same,Liver weight (mean ± SD),[2]; [6],1654 ± 145 mg
same,Liver-to-body weight ratio (mean ± SD),[2]; [6],8.5 ± 1.1%
same,Plasma ALT level compared with the Vehicle group,[3]; [7],tended to increase; also recorded: increasing trend
same,Plasma ALT (mean ± SD),[3]; [4],75 ± 31 U/L
same,Plasma ALT level compared with the Vehicle group,[3]; [8],tended to increase; also recorded: increasing trend
same,Plasma ALT (mean ± SD),[3]; [5],91 ± 15 U/L
same,Plasma ALT level compared with the Vehicle group,[3]; [9],significant increase
same,Plasma ALT (mean ± SD),[3]; [6],133 ± 100 U/L
